In US7772265B2, “2-oxadiazolechromone derivatives” (Merck Patent GmbH, priority 2002, dated 2010):

How the values were obtained:
PKB = PKB (Homo sapiens, UniProt P31749); assay: PKB inhibition (comparative measurement); format: biochemical; details: read-out: IC50 PKB inhibitor
Tie2 = Tie2 (Homo sapiens, UniProt Q02763); assay: Tie2 inhibition; format: biochemical; details: read-out: IC50 Tie2 inhibitor
Chain of Tie2 (Q02763 23-1124, species assumed): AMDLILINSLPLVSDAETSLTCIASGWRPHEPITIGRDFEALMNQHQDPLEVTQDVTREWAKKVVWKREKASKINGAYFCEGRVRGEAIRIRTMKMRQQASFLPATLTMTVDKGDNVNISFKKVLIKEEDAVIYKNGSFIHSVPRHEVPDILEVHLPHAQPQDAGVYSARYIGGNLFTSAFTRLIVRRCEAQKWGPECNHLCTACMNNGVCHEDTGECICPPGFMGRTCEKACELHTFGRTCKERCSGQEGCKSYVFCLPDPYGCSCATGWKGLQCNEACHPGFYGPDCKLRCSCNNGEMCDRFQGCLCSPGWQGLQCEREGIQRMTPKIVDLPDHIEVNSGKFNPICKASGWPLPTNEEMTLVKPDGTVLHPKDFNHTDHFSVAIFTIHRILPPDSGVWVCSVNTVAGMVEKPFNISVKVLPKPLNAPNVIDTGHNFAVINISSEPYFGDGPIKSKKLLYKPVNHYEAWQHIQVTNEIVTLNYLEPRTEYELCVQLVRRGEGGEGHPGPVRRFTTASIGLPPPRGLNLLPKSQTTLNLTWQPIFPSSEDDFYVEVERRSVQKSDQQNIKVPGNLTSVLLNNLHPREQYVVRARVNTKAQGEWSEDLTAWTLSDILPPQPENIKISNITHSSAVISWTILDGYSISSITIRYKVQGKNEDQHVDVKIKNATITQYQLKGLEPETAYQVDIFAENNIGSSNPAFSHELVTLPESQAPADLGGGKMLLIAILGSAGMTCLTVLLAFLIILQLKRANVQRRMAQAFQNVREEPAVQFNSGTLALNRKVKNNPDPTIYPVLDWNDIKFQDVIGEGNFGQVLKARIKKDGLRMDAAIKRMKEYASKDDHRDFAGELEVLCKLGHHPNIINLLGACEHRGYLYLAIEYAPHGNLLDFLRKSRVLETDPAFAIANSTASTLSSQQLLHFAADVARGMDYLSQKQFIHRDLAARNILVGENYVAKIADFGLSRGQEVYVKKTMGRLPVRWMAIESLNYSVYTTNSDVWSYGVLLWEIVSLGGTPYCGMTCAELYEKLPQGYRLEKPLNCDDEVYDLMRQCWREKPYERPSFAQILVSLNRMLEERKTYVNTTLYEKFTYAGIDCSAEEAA

Chain of PKB (P31749 whole entry, species assumed): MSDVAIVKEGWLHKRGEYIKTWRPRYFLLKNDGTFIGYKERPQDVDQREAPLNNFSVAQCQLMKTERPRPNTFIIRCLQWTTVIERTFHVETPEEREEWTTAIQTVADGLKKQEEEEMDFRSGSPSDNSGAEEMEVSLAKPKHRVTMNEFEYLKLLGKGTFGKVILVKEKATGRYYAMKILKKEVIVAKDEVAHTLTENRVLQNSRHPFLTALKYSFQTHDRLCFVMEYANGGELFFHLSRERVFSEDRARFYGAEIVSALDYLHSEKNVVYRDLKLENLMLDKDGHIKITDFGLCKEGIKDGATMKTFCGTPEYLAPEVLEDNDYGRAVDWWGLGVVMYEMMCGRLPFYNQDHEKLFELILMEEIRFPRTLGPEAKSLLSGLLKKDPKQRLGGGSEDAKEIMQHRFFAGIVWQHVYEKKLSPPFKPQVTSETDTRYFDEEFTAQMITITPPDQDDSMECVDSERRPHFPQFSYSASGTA

CC(C)(C)c1ccc(-c2noc(-c3cc(=O)c4cc(O)ccc4o3)n2)cc1 [6-hydroxy-2-[3-(4-tert-butylphenyl)-1,2,4-oxadiazol-5-yl]-chromone]
IC50 (PKB): > 30 µM | IC50 (Tie2): ≥ 10 µM
